This is an account of results in patent US20230183241A1, “CRYSTAL OF A HYPOXANTHINE COMPOUND” (Kissei Pharmaceutical Co., Ltd., priority 2020, published 2023).

The structures appear in SMILES notation. Read-outs that look alike come from different tables or passages of the source. Where only a bound is given, the exact number is not on record here.

In one series the target is T1, human PHD2184-418 (Homo sapiens, UniProt Q9GZT9).
T1 construct: containing amino acid residues 184 to 418 of the protein represented by CAC42509; histidine tag (N); made in house; host or cells: E. coli BL21 (DE3), pET-30a(+) vector
Briefly: PHD2 inhibitory test (fluorescence polarization, FITC-labeled HIF-1α556-574). To be noted: human PHD2 binding inhibitory activity; 2 μM 2-oxoglutarate, 37° C., 60 minutes. The procedure:
Test Example 1 PHD2 Inhibitory Test
(1) Expression and preparation of human PHD2184-418
Human PHD2184-418 containing amino acid residues 184 to 418 of the protein represented by CAC42509 (GenBank accession ID) was expressed and prepared by the following method.
An expression construct of human PHD2184-418 containing N-terminal histidine tag was introduced into pET-30α (+) vector, and the sequence was confirmed. This vector was introduced into BL21 (DE3) strain and cultured at 37° C. in LB medium containing antibiotics. After culturing, a cell lysis solution was added to the cells, and then the cells were disrupted and suspended by sonication. The disrupted suspension was centrifuged and the supernatant was purified by Ni column to give human PHD2184-418.
Human HIF-1α556-574 (FITC-labeled HIF-1α556-574), containing FITC-Ahx at the N-terminal of HIF-1α556-574 containing amino acid residues 556 to 574 (partial peptide) of human HIF-1α was used as a substrate. Using FITC-labeled HIF-1α556-574, the competitive inhibition between 2-oxoglutarate and the test compound (PHD inhibitor) was evaluated based on the change in fluorescence polarization of FITC-labeled HIF-1α556-574 by the following method.
An enzyme (human PHD2184-418) and the substrate were diluted with an assay buffer (pH 7.4) containing 10 mM HEPES, 150 mM NaCl, 10 μM MnCl2-4H2O, 2 μM 2-oxoglutarate and 0.05% Tween-2θ. […]
Background: Polarisation of emitted light reports the rotation of a fluorescent probe.

For series [1], the system named is TNBS induced colitis model rat. Briefly: Therapeutic effect in colitis model: suppression of intestinal permeability (FITC). The format is in vivo. To be noted: 3 mg/kg orally once a day for 3 days, serum FITC. The procedure: Test Example 2 Therapeutic Effect in Colitis Model
(1) TNBS Induced Colitis Model Rat
Thus, the suppressive effect on the intestinal permeability based on oral administration of the test compound was evaluated as an indicator of medicinal efficacy.
SD male rats: 8-week-old SLC (Japan SLC) were used. Under pentobarbital anesthesia, 300 μL of TNBS (28 mg/mL) which was prepared by 50% ethanol was administered at a point 8 cm from the anus in the large intestine to cause inflammation. To the solvent-treated group was administrated 300 μL of 50% ethanol. Animals were fasted for 48 hours prior to administration of TNBS. The test compound (3 mg/kg) prepared by 0.05% methylcellulose solution was orally administered once a day from the next day, and it was administered for a total of 3 days. After administering for 3 days, 50 mg/kg FITC was orally administered 4 hours after the administration of the test compound. Blood samples were collected from jugular vein under isoflurane anesthesia after 4 hours. The serum was centrifuged and fluorescence intensity was detected by PHERAstar FSX (BMG Labtech) to measure the concentration of FITC permeating into circulating blood through the mesentery. The suppressive rate on the intestinal permeability of the test compound was calculated based on the value of the test substance-free group as 0 and the value of the TNBS-untreated group as 100.

A short description of series [2]: Rat PK study: concentration of compounds in large intestine tissue and plasma. The format is in vivo. To be noted: male, SD, 3 mg/kg oral. The method, then: Test Example 3 Concentration of Compounds in Large Intestine Tissue
The test compound (3 mg/kg/5 mL) prepared with 0.05% methylcellulose was orally administered to non-fasted rats (SD, 8-week-old, male, Japan SLC). Blood samples were collected from jugular vein at 0.25, 0.5, 1, 2, 4, 6 and 8 hours after the administration. Laparotomy was performed under isoflurane anesthesia and large intestine was isolated. The collected distal large intestine (about 5 cm) was cut open, and then the large intestine extracted was washed with saline on a dish. After washing, the large intestine was minced with small scissors. About 150 mg thereof was moved to a tube. To the tube was added 100 μL of saline, and the mixture was homogenized using shake master (1000 rpm×30 minutes). Samples were prepared by the addition with quadruple volume of saline as the final volume. The concentrations of the test compound in the large intestine tissue and the plasma were measured through a quantitative analysis using liquid chromatography-mass spectrometry (LC/MS).
As the comparative example, a compound described as example 55 in US2015/0239889 (WO2014/030716) (Compound A) was used.
Symbols in the table have the following meanings. Compound A: comparative example Cmax: maximum plasma concentration of the test compound in the case of oral administration (ng/mL) AUC: area under the plasma test compound concentration-time curve (ng*min/mL) Plasma: plasma test compound concentration after 8 hours (ng/mL) Colon: concentration of the test compound in the large intestine tissue after 8 hours (ng/g) C/P: ratio of the above Colon and Plasma

Another series in a line: Solid stability test. The format is physicochemical. The note with it: open condition at 40° C., 1 month; for Amount of the mass change of the compound 1: HPLC area normalization; for Crystal form change: powder X-ray diffraction; for Properties: appearance White powder. The method, then: Test Example 4: Solid Stability Test
Physicochemical stability and chemical stability for crystals of compound 1 (crystal forms I to IV) were examined.
Physicochemical stability: Each crystal was stored under open condition at 40° C. The powder X-ray diffraction of the sample was measured at the initial point and 1 month later, and the change in crystal form was confirmed. The change in properties was also observed at the same time. Chemical stability: Each crystal was stored under open condition at 40° C. The mass of the compound 1 was measured under the following HPLC measurement conditions at the initial point and 1 month later. [HPLC conditions] Detector: Ultraviolet and visible absorptiometer/wavelength: 225 nm
Column: L-column2 ODS, 3 μm, 4.6×150 mm (Chemicals Evaluation and Research Institute)
Column temperature: Constant temperature around 40° C. Flow rate: 1.0 mL/min Mobile phase A: A solution which was prepared with phosphoric acid to pH 2.3 after dissolving potassium dihydrogen phosphate in water to 20 mmol/L Mobile phase B: Acetonitrile Mobile phase ratios 0 to 30 minutes: mobile phase A/mobile phase B=81/19 30 to 50 minutes: mobile phase A/mobile phase B=81/19 to 25/75 50 to 55 minutes: mobile phase A/mobile phase B=25/75 55 to 55.01 minutes: mobile phase A/mobile phase B=25/75 to 81/19 55.01 to 75 minutes: mobile phase A/mobile phase B=81/19 Amount of injection: 5 μL Sample cooler: 4° C. Dissolution solvent: Mixed solution (mobile phase A/acetonitrile=75/25) Sample solution: Sample was dissolved in dissolution solvent and adjusted to about 1.0 mg/mL
Excluding the peaks derived from the blank, the peak areas of the compound 1 and an analogous substance were measured by automatic integration, and the mass of the compound 1 was calculated by area normalization method. Further, the amount of the mass change of the compound 1 after the storage was calculated.

T1 sequence (Q9GZT9 184-418): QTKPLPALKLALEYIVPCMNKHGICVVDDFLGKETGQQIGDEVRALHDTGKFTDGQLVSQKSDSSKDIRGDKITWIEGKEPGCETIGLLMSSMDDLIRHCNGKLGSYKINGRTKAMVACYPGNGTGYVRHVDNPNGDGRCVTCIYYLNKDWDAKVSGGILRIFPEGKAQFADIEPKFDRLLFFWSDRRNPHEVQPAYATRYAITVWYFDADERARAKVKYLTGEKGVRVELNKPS

For orientation: IC50 means the concentration that gives 50% inhibition. Read a low IC50 as inhibition by little substance. As for `COc1ccc(Cn2cnc3nc(-n4cc(C(=O)O)cn4)[nH]c(=O)c32)cc1` [Compound 1, 1-(7-(4-Methoxybenzyl)-6-oxo-6,7-dihydro-1H-purin-2-yl)-1H-pyrazole-4-carboxylic acid], the IC50 on human PHD2184-418 is 440 nM. The “Inhibition (suppressive rate on the intestinal permeability, mean)” value in series [1] was 83%. Moreover, the concentration at 8 h is 209 ng/g in series [2] (large intestine tissue (distal), read-out: Colon: concentration in the large intestine tissue after 8 hours) and under 1 ng/mL in series [2] (plasma, read-out: Plasma: plasma test compound concentration after 8 hours). Also, the Kp at 8 h in series [2] (large intestine tissue / plasma, read-out: C/P: ratio of Colon and Plasma) is over 209.
As for `COc1ccc(Cn2cnc3nc(-n4cc(C(=O)O)cn4)[nH]c(=O)c32)cc1` [Crystal form I of the compound 1, 1-(7-(4-Methoxybenzyl)-6-oxo-6,7-dihydro-1H-purin-2-yl)-1H-pyrazole-4-carboxylic acid], in the series “Solid stability test”, the “Amount of the mass change of the compound 1” value was −0.05%, the Crystal form change result was “No change” and the Properties result is on record as “no change”.
The matching figures for `COc1ccc(Cn2cnc3nc(-n4cc(C(=O)O)cn4)[nH]c(=O)c32)cc1` [Crystal form II of the compound 1, 1-(7-(4-Methoxybenzyl)-6-oxo-6,7-dihydro-1H-purin-2-yl)-1H-pyrazole-4-carboxylic acid]: 0.03%, “No change” and “no change”.
Consider `COc1ccc(Cn2cnc3nc(-n4cc(C(=O)O)cn4)[nH]c(=O)c32)cc1` [Crystal form III of the compound 1, 1-(7-(4-Methoxybenzyl)-6-oxo-6,7-dihydro-1H-purin-2-yl)-1H-pyrazole-4-carboxylic acid], for which, in “Solid stability test”, the “Amount of the mass change of the compound 1” value was 0.00%, the Crystal form change entry is reported as “No change” and the Properties entry is “no change”.
The matching figures for `COc1ccc(Cn2cnc3nc(-n4cc(C(=O)O)cn4)[nH]c(=O)c32)cc1` [Crystal form IV of the compound 1, 1-(7-(4-Methoxybenzyl)-6-oxo-6,7-dihydro-1H-purin-2-yl)-1H-pyrazole-4-carboxylic acid]: 0.00%, “No change” and “no change”.
